Several values for one entry are separate records, joined by “and”; a condition that tells them apart may be missing. Equal values may be shown once. Values belong to the compound of their own block, whether it stands above or below them.
Assays:
P2X7 = molecular target: T1, P2X7 (Homo sapiens, UniProt Q99572); settings: stated without test; read-out: EC50 as P2X7 agonist; cited from earlier work
T1 sequence (Q99572 1-595): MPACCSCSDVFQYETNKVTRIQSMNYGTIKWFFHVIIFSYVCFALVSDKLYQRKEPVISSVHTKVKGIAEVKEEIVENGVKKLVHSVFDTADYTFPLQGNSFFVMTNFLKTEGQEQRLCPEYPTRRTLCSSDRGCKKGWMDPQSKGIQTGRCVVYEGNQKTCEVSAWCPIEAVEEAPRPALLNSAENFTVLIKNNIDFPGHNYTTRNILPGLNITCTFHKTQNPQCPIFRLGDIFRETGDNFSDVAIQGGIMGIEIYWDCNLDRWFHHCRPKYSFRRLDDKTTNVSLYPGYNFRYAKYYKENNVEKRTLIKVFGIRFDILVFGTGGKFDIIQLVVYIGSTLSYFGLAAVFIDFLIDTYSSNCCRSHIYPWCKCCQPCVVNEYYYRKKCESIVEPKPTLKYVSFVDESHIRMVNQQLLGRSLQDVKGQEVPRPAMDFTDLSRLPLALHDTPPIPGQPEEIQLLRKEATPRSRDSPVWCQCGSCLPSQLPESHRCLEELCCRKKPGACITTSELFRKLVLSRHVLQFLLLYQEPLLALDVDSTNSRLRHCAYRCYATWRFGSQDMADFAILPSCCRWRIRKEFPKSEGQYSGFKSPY

[1] = UV radical generation activity; type: physicochemical
[2] = molecular target: T2, cloned P2X7 ATP-activated channel (human P2RX7 gene expressed in HEK293 cells) (Homo sapiens, UniProt Q99572); test: Electrochemical patch clamp assay of P2X7 receptor activation (agonist mode, QPatch HT); type: cell-based; settings: for Individual Data Points (% Activation): single cells; for EC50: whole-cell patch clamp, holding voltage −80 mV, room temperature; for decrease in EC50 when compared to BzBz-ATP / decrease in EC50 when compared to native ATP: ratio of EC50 values
T2 construct: HEK293 cells were stably transfected with the appropriate ion channel cDNA encoding the pore-forming channel subunit; expressed in transfected cells
T2 sequence (Q99572 1-595): T1 sequence (Q99572 1-595)

[3] = test system: DMBA/TPA-induced skin papillomas and squamous spindle-cell carcinomas; test: Mouse two-step DMBA/TPA skin neoplasia model, local co-treatment with BzBzATP; type: in vivo
Protocol: Experiments were performed to test the hypothesis that activation of the P2X7 receptor could inhibit development of epidermal neoplasia. These experiments utilized the mouse two-step DMBA/TPA skin neoplasia model, which involves tumor initiation by local treatment with DMBA, followed by tumor promotion by local treatment with TPA. Agarwal et al, “Inhibitory effect of 18beta-glycyrrhetinic acid on 12-O-tetradecanoyl phorbol-13-acetate-induced cutaneous oxidative, stress and tumor promotion in mice” Redox Rep 10:151-157 (2005); and Guo et al, “Disruption of EphA2 receptor tyrosine kinase leads to increased susceptibility to carcinogenesis in mouse skin” Cancer Res 66:7050-7058 (2006). Mice had their dorsal skin shaved, and DMBA was applied once by topical application onto the shaved dorsal skin. TPA treatment by topical application onto the shaved dorsal skin was started one week later and continued twice a week for 12 weeks.
Animals were divided into three groups: Control mice (n=15) that had their back shaved and were treated only with the vehicle; DMBA/TPA-treated mice (n=15); and DMBA/TPA-treated mice that were co-treated with BzBzATP twice a week from week −2 (i.e. two weeks prior to DMBA) (n=14). All treatments were applied locally on the shaved dorsal skin. Papilloma development was monitored weekly from week 5 to 12 after the DMBA. Endpoints were percent animals with at least one papilloma; number of papilloma per animal; and mean papilloma size (e.g., millimeters of the largest lesion dimension). None of the animals in the control group had developed papillomas.
To evaluate the effects of BzBzATP, changes in skin lesions in the DMBA/TPA and DMBA/TPA+BzBzATP groups were compared relative to the length of treatment. Since formation of papillomas and cancerous lesions was time-related (i.e., for example, a marked cut-off occurs between weeks 13-14; see, FIG. 4A), data were analyzed separately for weeks 0-12 and weeks 14-28.

[4] = week 10, DMBA/TPA+BzBzATP group
[5] = week 12, DMBA/TPA+BzBzATP group
[6] = week 28, DMBA/TPA+BzBzATP group

Compound: 2′,3′-0-(4-benzoylbenzoyl)-adenosine 5′-triphosphate [BzBzATP, reference compound]
- EC50 (P2X7): ~50 µM
- UV radical generation activity [1]: high degree of UV radical generation activity
- P2X7 receptor activation efficacy, comparison in words [2]: slight improvement of receptor activation efficacy
- Mean % P2X7 Activation ([2]; Conc 1 μM): 0.0%
- Individual Data Points (% Activation) ([2]; Conc 1 μM): 0.1% and 0.0% and −0.2%
- Mean % P2X7 Activation ([2]; Conc 10 μM): 6.7%
- Individual Data Points (% Activation) ([2]; Conc 10 μM): 2.2% and 14.9% and 2.9%
- Mean % P2X7 Activation ([2]; Conc 100 μM): 16.9%
- Individual Data Points (% Activation) ([2]; Conc 100 μM): 7.2% and 29.6% and 13.8%
- Individual Data Points (% Activation) ([2]; Conc 200 μM): 34.8% and 41.8% and 39.4%
- Mean % P2X7 Activation ([2]; Conc 500 μM): 100.0%
- Individual Data Points (% Activation) ([2]; Conc 500 μM): 100.0%
- EC50 [2]: 218 µM
- TUNEL staining of papilloma tissue ([3]; biopsy at week 10, basal/parabasal regions): intense TUNEL staining
- decrease of the mean number of papillomas per animal ([3]; versus DMBA/TPA group): about 25%
- decrease of the mean papilloma size ([3]; versus DMBA/TPA group): about 45%
- proportion of living animals with cancerous lesions >200 mm^3 ([3]; versus DMBA/TPA group): differences did not reach statistical significance
- proportion of living animals having a papilloma ([3]; week 5, DMBA/TPA+BzBzATP group): 48±12%
- animals having at least one papilloma ([3]; week 6, DMBA/TPA+BzBzATP group): 53.8%
- papillomas per animal (mean±SEM) [3, 4]: 1.23±0.34
- papillomas per living animal (mean±SD) [3, 4]: 1.2±0.4
- mean papilloma size per animal (mean±SEM) [3, 5]: 3.46±0.73 mm
- mean total papillomas size per animal (mean±SD) [3, 5]: 3.4±1.0 mm
- animals that developed at least one skin papilloma ([3]; week 12, DMBA/TPA+BzBzATP group, local on dorsal skin twice a week): 78%
- proportion of living animals with cancerous lesions [3, 6]: 43±9%
- proportion of living animals with cancerous lesions >10 mm^3 [3, 6]: 16±4%

Compound: Nc1ncnc2c1ncn2[C@@H]1O[C@H](COP(=O)(O)OP(=O)(O)OP(=O)(O)O)[C@@H](OC(=O)c2ccccc2)[C@H]1O [3′-O-(Benzoyl) Adenosine-5-Triphosphate, 3′-O-(benzoyl)-adenosine-5-triphosphate]
- UV radical generation activity [1]: low or no UV radical generation activity
- Mean % P2X7 Activation ([2]; Conc 1 μM): 8.3%
- Individual Data Points (% Activation) ([2]; Conc 1 μM): 15.8% and 9.7% and −0.7%
- Mean % P2X7 Activation ([2]; Conc 10 μM): 43.0%
- Individual Data Points (% Activation) ([2]; Conc 10 μM): 65.4% and 42.3% and 21.3%
- Mean % P2X7 Activation ([2]; Conc 100 μM): 94.5%
- Individual Data Points (% Activation) ([2]; Conc 100 μM): 102.5% and 82.3% and 98.7%
- Mean % P2X7 Activation ([2]; Conc 500 μM): 129.2%
- Individual Data Points (% Activation) ([2]; Conc 500 μM): 148.4% and 129.1% and 110.2%
- decrease in EC50 when compared to BzBz-ATP [2]: ~910%
- decrease in EC50 when compared to native ATP [2]: ~1511%
- EC50 [2]: 24 µM

Compound: Nc1ncnc2c1ncn2[C@@H]1O[C@H](COP(=O)(O)OP(=O)(O)OP(=O)(O)O)[C@@H](OC(=O)c2cccc(Oc3ccccc3)c2)[C@H]1O [ATP-(3-phenoxy)benzoyl, 3-phenoxybenzoyl-ATP]
- Mean % P2X7 Activation ([2]; Conc 1 μM): 12.3%
- Individual Data Points (% Activation) ([2]; Conc 1 μM): 7.0% and 45.4% and 6.7% and −9.7%
- Mean % P2X7 Activation ([2]; Conc 10 μM): 74.7%
- Individual Data Points (% Activation) ([2]; Conc 10 μM): 36.6% and 167.5% and 39.7% and 54.9%
- Mean % P2X7 Activation ([2]; Conc 100 μM): 186.3%
- Individual Data Points (% Activation) ([2]; Conc 100 μM): 85.6% and 284.3% and 136.9% and 238.4%
- Mean % P2X7 Activation ([2]; Conc 500 μM): 320.8%
- Individual Data Points (% Activation) ([2]; Conc 500 μM): 346.4% and 357.0% and 209.5% and 370.2%
- decrease in EC50 when compared to BzBz-ATP [2]: ~445%
- decrease in EC50 when compared to native ATP [2]: ~738%
- EC50 [2]: 49.1 µM

Compound: CCCCCCCCCCCC(=O)O[C@H]1[C@@H](O)[C@H](n2cnc3c(N)ncnc32)O[C@@H]1COP(=O)(O)OP(=O)(O)OP(=O)(O)O [ATP-lauroyl, lauroyl-ATP]
- UV radical generation activity [1]: low or no UV radical generation activity
- Mean % P2X7 Activation ([2]; Conc 1 μM): 8.1%
- Individual Data Points (% Activation) ([2]; Conc 1 μM): −2.1% and 26.6% and −0.3%
- Mean % P2X7 Activation ([2]; Conc 10 μM): 29.9%
- Individual Data Points (% Activation) ([2]; Conc 10 μM): 45.1% and 18.1% and 26.4%
- Mean % P2X7 Activation ([2]; Conc 100 μM): 42.0%
- Individual Data Points (% Activation) ([2]; Conc 100 μM): 38.7% and 64.8% and 22.6%
- Mean % P2X7 Activation ([2]; Conc 500 μM): 96.9%
- Individual Data Points (% Activation) ([2]; Conc 500 μM): 98.3% and 124.6% and 67.7%
- decrease in EC50 when compared to BzBz-ATP [2]: ~350%
- decrease in EC50 when compared to native ATP [2]: ~580%
- EC50 [2]: 62.4 µM
- EC50 ([2]; listed as lauroyl-ATP): ~62 µM
- dissolution in a solution with 0.3% DMSO: not totally dissolved

Continued, in another order:

- Mean % P2X7 Activation ([2]; Conc 300 μM): 40.9%
- Mean % P2X7 Activation ([2]; Conc 750 μM): 75.4%
- EC50 [2]: 363 µM
Compound: Nc1ncnc2c1ncn2[C@@H]1O[C@H](COP(=O)(O)OP(=O)(O)OP(=O)(O)O)[C@@H](O)[C@H]1O [NaATP, adenosine triphosphate, reference compound]
- EC50 (P2X7): ~100 µM

- UV radical generation activity [1]: low or no UV radical generation activity
Compound: Nc1ncnc2c1ncn2[C@@H]1O[C@H](COP(=O)(O)OP(=O)(O)OP(=O)(O)O)[C@@H](OC(=O)/C=C/c2ccccc2)[C@H]1O [cinnamoyl-ATP]
